biological target: human Arginine Vasopressin Receptor 1a (AVPR1a) (Homo sapiens, UniProt P37288); test: cell-based; conditions: not given
Sequence (P37288 whole entry): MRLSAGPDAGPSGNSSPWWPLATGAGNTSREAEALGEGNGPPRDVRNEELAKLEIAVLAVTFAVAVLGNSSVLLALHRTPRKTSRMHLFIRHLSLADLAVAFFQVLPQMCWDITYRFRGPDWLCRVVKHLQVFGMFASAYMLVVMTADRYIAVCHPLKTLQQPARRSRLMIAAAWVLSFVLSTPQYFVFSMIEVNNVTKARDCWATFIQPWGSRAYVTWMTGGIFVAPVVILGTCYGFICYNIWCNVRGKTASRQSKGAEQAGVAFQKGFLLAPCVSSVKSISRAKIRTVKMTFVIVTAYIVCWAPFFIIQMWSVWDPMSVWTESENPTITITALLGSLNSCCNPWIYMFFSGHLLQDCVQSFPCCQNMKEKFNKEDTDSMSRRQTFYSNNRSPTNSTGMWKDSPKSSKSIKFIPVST

Structure (SMILES) | IC50
Cc1ccc(N2CCC(C(=O)N(CC3CC3)c3ccc(Cl)cc3)CC2)nc1 [Compound 149] | 20 nM
O=C(C1CCN(c2cc(C(F)(F)F)ccn2)CC1)N(CC1CC1)c1ccc(Cl)cc1 [Compound 179] | 37 nM

same assay, conditions: read-out: V1a-R IC50

IC50 | Structure (SMILES)
24 nM | O=C(C1CCN(c2nc3ccccc3o2)CC1)N1CCCCc2cc(Cl)ccc21 [Compound 213]
5400 nM | CCC(CC)C(=O)N1CCC(C(=O)N2CCCCc3cc(Cl)ccc32)CC1 [Compound 79]
78 nM | O=C(N1CCC2(CC1)OCc1ccccc12)N1CCCCc2cc(Cl)ccc21 [V:293]
41 nM | Cc1cc(N2CCC(C(=O)N(CC3CC3)c3ccc(Cl)cc3)CC2)ncc1Cl [Compound 216]
5280 nM | N#Cc1cc(C(=O)N2CCC(C(=O)N3CCCCc4cc(Cl)ccc43)CC2)ccc1F [Compound 115]
130 nM | O=C(C1CCN(c2nc3ccccc3o2)CC1)N(CC1CC1)c1ccc(Cl)cc1 [Compound 206]
130 nM | N#Cc1cccnc1N1CCC(C(=O)N2CCCCc3cc(Cl)ccc32)CC1 [Compound 111]
56 nM | O=C(C1CCN(c2ncc(Cl)cn2)CC1)N1CCCCc2cc(Cl)ccc21 [Compound 164]
17 nM | COc1ccnc(N2CCC(C(=O)N(CC3CC3)c3ccc(Cl)cc3)CC2)n1 [Compound 172]
146 nM | O=C(C1CCN(c2nccc(C(F)(F)F)n2)CC1)N(CC1CC1)c1ccc(Cl)cc1 [Compound 171]
267 nM | O=C(N1CCN(c2nccs2)CC1)N1CCCCc2cc(Cl)ccc21 [Compound 127]
5 nM | O=C(C1CCN(c2ccccn2)CC1)N1CCCCc2cc(Cl)ccc21 [Compound 109]
207 nM | O=C(C1CCN(c2ncccn2)CC1)N1CCCCc2cc(Cl)ccc21 [Compound 110]
229 nM | Cc1cc(C)nc(N2CCC(C(=O)N(CC3CCC3)c3ccc(Cl)cc3)CC2)n1 [Compound 200]
16 nM | Cc1ccnc(N2CCN(C(=O)N(CC3CC3)c3ccc(Cl)cc3)CC2)c1 [Compound 161]
20 nM | Cc1cnc(N2CCC(C(=O)N(CC3CC3)c3ccc(Cl)cc3)CC2)c(F)c1 [Compound 218]
96 nM | N#Cc1ccnc(N2CCC(C(=O)N(CC3CC3)c3ccc(Cl)cc3)CC2)n1 [Compound 170]
8 nM | Cc1cc(C)nc(N2CCC(C(=O)N(CC3CC3)c3ccc(Cl)cc3)CC2)n1 [Compound 151]
81 nM | N#Cc1ccnc(N2CCC(C(=O)N3CCCCc4cc(Cl)ccc43)CC2)n1 [Compound 181]
7 nM | Cc1cc(Cl)cnc1N1CCC(C(=O)N2CCCCc3cc(Cl)ccc32)CC1 [Compound 221]
66 nM | O=C(C1CCN(c2ncnc3cc(Cl)ccc23)CC1)N1CCCCc2cc(Cl)ccc21 [Compound 187]

IC50 | Structure (SMILES)
28 nM | C#CCN(C(=O)C1CCN(c2nc(C)cc(C)n2)CC1)c1ccc(Cl)cc1 [Compound 201]
45 nM | O=C(C1CCN(c2cnccn2)CC1)N(CC1CC1)c1ccc(Cl)cc1 [Compound 152]
11 nM | O=C(C1CCN(c2ccc(Cl)cn2)CC1)N1CCCCc2cc(Cl)ccc21 [Compound 225]
89 nM | O=C(C1CCN(c2ncc(C(F)(F)F)cn2)CC1)N1CCCCc2cc(Cl)ccc21 [Compound 210]
1800 nM | O=C(c1ccc(Cl)cc1Cl)N1CCC(C(=O)N2CCCCc3cc(Cl)ccc32)CC1 [Compound 89]
621 nM | O=C(c1csc2ccccc12)N1CCC(C(=O)N2CCCCc3cc(Cl)ccc32)CC1 [Compound 119]
15100 nM | Cc1noc(C)c1C(=O)N1CCC(C(=O)N2CCCCc3cc(Cl)ccc32)CC1 [Compound 80]
11 nM | COc1ccnc(N2CCC(C(=O)N3CCCCc4cc(Cl)ccc43)CC2)n1 [Compound 175]
446 nM | O=C(c1cc2ccccc2[nH]1)N1CCC(C(=O)N2CCCCc3cc(Cl)ccc32)CC1 [Compound 121]
4940 nM | CCC(CC)N(C(=O)C1CCN(c2nc(C)cc(C)n2)CC1)c1ccc(Cl)cc1 [Compound 228]
17 nM | O=C(C1CCN(c2cc(C(F)(F)F)ccn2)CC1)N1CCCCc2cc(Cl)ccc21 [Compound 178]
106 nM | O=C(N1CCN(c2ncc(F)cn2)CC1)N(CC1CC1)c1ccc(Cl)cc1 [Compound 155]
158 nM | Cc1cc(C)nc(N2CCC(C(=O)N3CCCC(=O)c4cc(Cl)ccc43)CC2)n1 [Compound 194]
7 nM | Cc1cccnc1N1CCC(C(=O)N(CC2CC2)c2ccc(Cl)cc2)CC1 [Compound 147]
1490 nM | O=C(c1ccccc1F)N1CCC(C(=O)N2CCCCc3cc(Cl)ccc32)CC1 [Compound 84]
26 nM | Cc1nc(N2CCC(C(=O)N3CCCCc4cc(Cl)ccc43)CC2)ncc1Cl [Compound 184]
20 nM | O=C(C1CCN(c2ccc(C(F)(F)F)cn2)CC1)N1CCCCc2cc(Cl)ccc21 [Compound 226]
83 nM | O=C(N1CCC(c2ccccc2)CC1)N1CCCCc2cc(Cl)ccc21 [Compound 131]
5760 nM | N#Cc1ccc(C(=O)N2CCC(C(=O)N3CCCCc4cc(Cl)ccc43)CC2)cc1 [Compound 113]
1230 nM | N#Cc1ccc(N2CCC(C(=O)N3CCCCc4cc(Cl)ccc43)CC2)nc1 [Compound 112]
405 nM | Cc1cc(N2CCC(C(=O)N3CCCCc4cc(Cl)ccc43)CC2)nc(C)n1 [Compound 186]

IC50 | Structure (SMILES)
517 nM | Cc1cc(C)nc(N2CCC(C(=O)N(CC3(C)COC3)c3ccc(Cl)cc3)CC2)n1 [Compound 227]
2 nM | Cc1cc(C)nc(N2CCC(C(=O)N3CCCCc4cc(Cl)ccc43)CC2)n1 [Compound 165]
61 nM | O=C(C1CCN(c2ncc(Cl)cc2F)CC1)N(CC1CC1)c1ccc(Cl)cc1 [Compound 219]
16 nM | O=C(C1CCN(c2ncc3ccccc3n2)CC1)N1CCCCc2cc(Cl)ccc21 [Compound 211]
134 nM | Cc1cc(C)nc(N2CCC(C(=O)N3CCCC(C)(O)c4cc(Cl)ccc43)CC2)n1 (stereo not shown) [Compound 197]
3 nM | Cc1ccnc(N2CCC(C(=O)N(CC3CC3)c3ccc(Cl)cc3)CC2)c1 [Compound 148]
63 nM | N#Cc1ccnc(N2CCC(C(=O)N(CC3CC3)c3ccc(Cl)cc3)CC2)c1 [Compound 173]
279 nM | Cc1ccc(Cl)cc1N1CCN(C(=O)N2CCCCc3cc(Cl)ccc32)CC1 [Compound 130]
249 nM | O=C(c1c[nH]c2ccccc12)N1CCC(C(=O)N2CCCCc3cc(Cl)ccc32)CC1 [Compound 120]
284 nM | CCCN(C(=O)C1CCN(c2nc(C)cc(C)n2)CC1)c1ccc(Cl)cc1 [Compound 198]
227 nM | CCc1cnc(N2CCC(C(=O)N(CC3CC3)c3ccc(Cl)cc3)CC2)nc1 [Compound 188]
123 nM | O=C(C1CCN(c2ccc(C(F)(F)F)cn2)CC1)N(CC1CC1)c1ccc(Cl)cc1 [Compound 145]
69 nM | O=C(C1CCN(c2ncc(C3CC3)cn2)CC1)N1CCCCc2cc(Cl)ccc21 [Compound 209]
205 nM | O=C(N1CCN(c2cc(Cl)cc(Cl)c2)CC1)N1CCCCc2cc(Cl)ccc21 [Compound 129]
1720 nM | O=C(c1c(F)cccc1F)N1CCC(C(=O)N2CCCCc3cc(Cl)ccc32)CC1 [Compound 92]
29 nM | O=C(N1CCN(c2ccc(C(F)(F)F)cc2)CC1)N1CCCCc2cc(Cl)ccc21 [Compound 132]
84 nM | O=C(C1CCN(c2ncccc2C(F)(F)F)CC1)N(CC1CC1)c1ccc(Cl)cc1 [Compound 143]
54 nM | O=C(N1CCN(c2ncccc2C(F)(F)F)CC1)N1CCCCc2cc(Cl)ccc21 [Compound 126]
8080 nM | O=C(C1CCN(C(=O)C23CC4CC(CC(C4)C2)C3)CC1)N1CCCCc2cc(Cl)ccc21 [Compound 81]
27 nM | O=C(N1CCN(c2ccccc2)CC1)N1CCCCc2cc(Cl)ccc21 [Compound 128]
91 nM | O=C(C1CCN(c2ncc(F)cn2)CC1)N(CC1CC1)c1ccc(Cl)cc1 [Compound 168]

IC50 | Structure (SMILES)
38 nM | Cc1cnc(N2CCC(C(=O)N(CC3CC3)c3ccc(Cl)cc3)CC2)nc1 [Compound 166]
305 nM | O=C1Nc2ccccc2C2(CCN(C(=O)N3CCCCc4cc(Cl)ccc43)CC2)O1 [V:292]
5 nM | Cc1cnc(N2CCC(C(=O)N3CCCCc4cc(Cl)ccc43)CC2)c(F)c1 [Compound 222]
1860 nM | O=C(c1cccc(F)c1F)N1CCC(C(=O)N2CCCCc3cc(Cl)ccc32)CC1 [Compound 91]
16 nM | Cc1nc(N2CCC(C(=O)N3CCCCc4cc(Cl)ccc43)CC2)ncc1F [Compound 183]
7 nM | O=C(C1CCN(c2ncc3c(n2)CCC3)CC1)N1CCCCc2cc(Cl)ccc21 [Compound 215]
23 nM | Cc1cccc(N2CCC(C(=O)N(CC3CC3)c3ccc(Cl)cc3)CC2)n1 [Compound 150]
206 nM | O=C(N1CCN(c2ncc(Cl)cn2)CC1)N(CC1CC1)c1ccc(Cl)cc1 [Compound 157]
48 nM | Cc1nc(N2CCC(C(=O)N(CC3CC3)c3ccc(Cl)cc3)CC2)ncc1F [Compound 189]
2490 nM | CC(C)(C)C(=O)N1CCC(C(=O)N2CCCCc3cc(Cl)ccc32)CC1 [Compound 82]
256 nM | O=C(N1CCN(c2ncccn2)CC1)N1CCCCc2cc(Cl)ccc21 [Compound 123]
49 nM | O=C(C1CCN(c2ncnc3ccc(F)cc23)CC1)N1CCCCc2cc(Cl)ccc21 [Compound 212]
800 nM | N#Cc1ccc(N2CCC(C(=O)N(CC3CC3)c3ccc(Cl)cc3)CC2)nc1 [Compound 153]
216 nM | O=C(C1CCN(c2ccnc(Cl)c2)CC1)N1CCCCc2cc(Cl)ccc21 [Compound 176]
1160 nM | Cc1cncc(C(=O)N2CCC(C(=O)N3CCCCc4cc(Cl)ccc43)CC2)c1 [Compound 117]
1820 nM | O=C(c1ccccc1)N1CCC(C(=O)N2CCCCc3cc(Cl)ccc32)CC1 [Compound 83]
17 nM | Cc1ccnc(N2CCC(C(=O)N3CCCCc4cc(Cl)ccc43)CC2)n1 [Compound 180]
74 nM | Cc1nc(N2CCC(C(=O)N(CC3CC3)c3ccc(Cl)cc3)CC2)c2ccccc2n1 [Compound 191]
28 nM | N#Cc1ccnc(N2CCC(C(=O)N3CCCCc4cc(Cl)ccc43)CC2)c1 [Compound 177]
74 nM | O=C(C1CCN(c2ncnc3ccc(F)cc23)CC1)N(CC1CC1)c1ccc(Cl)cc1 [Compound 205]
